The text below walks through data of patent publication US10519140B2, “Indolin-2-one derivatives” (Hoffmann-La Roche Inc., priority 2015, dated 2019).

The structures appear in SMILES notation.

This assay concerns the target T1, mouse ENT-1 transporter (Mus musculus, UniProt Q9JIM1).
T1 construct: expressed in transfected cells
T1 sequence (Q9JIM1 1-460): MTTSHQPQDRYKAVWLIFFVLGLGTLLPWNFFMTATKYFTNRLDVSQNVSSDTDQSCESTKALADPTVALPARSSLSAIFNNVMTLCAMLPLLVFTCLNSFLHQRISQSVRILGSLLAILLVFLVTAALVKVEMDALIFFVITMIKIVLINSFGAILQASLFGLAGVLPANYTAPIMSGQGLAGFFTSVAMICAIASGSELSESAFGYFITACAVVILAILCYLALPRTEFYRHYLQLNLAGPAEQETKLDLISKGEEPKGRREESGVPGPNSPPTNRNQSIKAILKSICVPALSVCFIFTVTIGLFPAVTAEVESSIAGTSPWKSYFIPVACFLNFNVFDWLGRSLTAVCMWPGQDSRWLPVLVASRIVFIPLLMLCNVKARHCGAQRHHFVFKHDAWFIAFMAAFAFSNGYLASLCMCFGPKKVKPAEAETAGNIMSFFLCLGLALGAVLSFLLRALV
As to the kind of experiment: Adenosine transport activity (ENT1, [3H]-adenosine uptake inhibition). Format: cell-based. The note with it: stable cells expressing mouse ENT-1; [2,8-3H]-adenosine 6 nM, 20 min. How it is done: To measure adenosine transport activity of ENT-1 mammalian cells, stable cells expressing the mouse ENT-1 transporter were plated on day 1 in 96-well culture plates at the density of 60,000 cells/well, in complete DMEM/F12 medium supplemented with glutamax, 10% FBS and 10 μg/ml puromycin. On day 2, the medium was aspirated and the cells were washed twice with uptake buffer (10 mM Hepes-Tris, pH 7.4 containing 150 mM NaCl, 1 mM CaCl2, 2.5 mM KCl, 2.5 mM MgSO4, 10 mM D-glucose) (UB). For inhibition experiments, cells were then incubated at RT with various concentrations of compounds with 1% DMSO final. Non-specific uptake was defined in the presence of 10 μM S-(4-Nitrobenzyl)-6-thioinosine (NBTI, Sigma Cat #N2255). A solution containing [2,8-^3H]-adenosine 6 nM (40 Ci/mmol, American Radiolabeled chemicals Inc, Cat #ART 0287A) was then immediately added to the wells. The plates were then incubated for 20 min with gentle shaking and the reaction was stopped by aspiration of the mixture and washing (three times) with ice-cold UB. The cells were lysed by the addition of scintillation liquid, shaken 3 hours and the radioactivity in the cells was estimated using a microplates scintillation counter (TopCount NXT, Packard).

Turning to `Cc1ncc(-c2ccc3c(c2)N(c2cncc(N4C(=O)O[C@H]5CC[C@H]54)n2)C(=O)C3(C)C)cn1` (racemic) [Example 55, rac-(1S,5R)-4-(6-(3,3-Dimethyl-6-(2-methylpyrimidin-5-yl)-2-oxoindolin-1-yl)pyrazin-2-yl)-2-oxa-4-azabicyclo[3.2.0]heptan-3-one], the IC50 (usually the concentration needed to halve the response being measured) was 0.0248 µM.
The result for `Cc1ncc(-c2ccc3c(c2)N(c2cncc(N)n2)C(=O)C3(C)C)cn1` [Example 2, 1-(6-Aminopyrazin-2-yl)-3,3-dimethyl-6-(2-methylpyrimidin-5-yl)indolin-2-one] reads 0.163 µM; that for `Cc1ncc(-c2ccc3c(c2)N(c2cncc(N4CCCC4)n2)C(=O)C3(C)C)cn1` [Example 4, 3,3-Dimethyl-6-(2-methylpyrimidin-5-yl)-1-(6-(pyrrolidin-1-yl)pyrazin-2-yl)indolin-2-one], 0.253 µM; that for `CC(=O)Nc1cncc(N2C(=O)C(C)(C)c3ccc(-c4cnc(C)nc4)cc32)n1` [Example 5, N-(6-(3,3-Dimethyl-6-(2-methylpyrimidin-5-yl)-2-oxoindolin-1-yl)pyrazin-2-yl)acetamide], 0.048 µM.
The result for `Cc1ncc(-c2ccc3c(c2)N(c2cncc(N4CCC(F)(F)CC4)n2)C(=O)C3(C)C)cn1` [Example 6, 1-(6-(4,4-Difluoropiperidin-1-yl)pyrazin-2-yl)-3,3-dimethyl-6-(2-methylpyrimidin-5-yl)indolin-2-one] reads 0.0324 µM; that for `Cc1ncc(-c2ccc3c(c2)N(c2cncc(NC4CC4)n2)C(=O)C3(C)C)cn1` [Example 7, 1-(6-(Cyclopropylamino)pyrazin-2-yl)-3,3-dimethyl-6-(2-methylpyrimidin-5-yl)indolin-2-one], 0.0396 µM; that for `COCCNc1cncc(N2C(=O)C(C)(C)c3ccc(-c4cnc(C)nc4)cc32)n1` [Example 8, 1-[6-(2-Methoxyethylamino)pyrazin-2-yl]-3,3-dimethyl-6-(2-methylpyrimidin-5-yl)indol-2-one], 0.0876 µM.
The result for `Cc1ncc(-c2ccc3c(c2)N(c2cncc(N4CCC(O)CC4)n2)C(=O)C3(C)C)cn1` [Example 9, 1-(6-(4-Hydroxypiperidin-1-yl)pyrazin-2-yl)-3,3-dimethyl-6-(2-methylpyrimidin-5-yl)indolin-2-one] reads 0.0218 µM; that for `Cc1ncc(-c2ccc3c(c2)N(c2cncc(N4CCS(=O)(=O)CC4)n2)C(=O)C3(C)C)cn1` [Example 10, 1-(6-(1,1-Dioxidothiomorpholino)pyrazin-2-yl)-3,3-dimethyl-6-(2-methylpyrimidin-5-yl)indolin-2-one], 0.0296 µM.
On to `Cc1ncc(-c2ccc3c(c2)N(c2cncc(N4CCC(C)(O)CC4)n2)C(=O)C3(C)C)cn1` [Example 11, 1-(6-(4-Hydroxy-4-methylpiperidin-1-yl)pyrazin-2-yl)-3,3-dimethyl-6-(2-methylpyrimidin-5-yl)indolin-2-one], for which the IC50 was 0.0338 µM.
For `COCCN(C)c1cncc(N2C(=O)C(C)(C)c3ccc(-c4cnc(C)nc4)cc32)n1` [Example 12, 1-(6-((2-Methoxyethyl)(methyl)amino)pyrazin-2-yl)-3,3-dimethyl-6-(2-methylpyrimidin-5-yl)indolin-2-one], half-maximal inhibition (IC50) was put at 0.0545 µM.
`Cc1ncc(-c2ccc3c(c2)N(c2cncc(N4[C@@H]5COC[C@H]4C5)n2)C(=O)C3(C)C)cn1` [Example 13, 1-(6-((1R,5S)-3-Oxa-6-azabicyclo[3.1.1]heptan-6-yl)pyrazin-2-yl)-3,3-dimethyl-6-(2-methylpyrimidin-5-yl)indolin-2-one] had an IC50 of 0.137 µM.
Then `Cc1ncc(-c2ccc3c(c2)N(c2cncc(N4CCC45COC5)n2)C(=O)C3(C)C)cn1` [Example 14, 1-(6-(6-Oxa-1-azaspiro[3.3]heptan-1-yl)pyrazin-2-yl)-3,3-dimethyl-6-(2-methylpyrimidin-5-yl)indolin-2-one], with 0.11 µM; and `Cc1ncc(-c2ccc3c(c2)N(c2cncc(N4C[C@H]5C[C@@H](C4)O5)n2)C(=O)C3(C)C)cn1` [Example 16, 1-(6-((1R,5S)-6-Oxa-3-azabicyclo[3.1.1]heptan-3-yl)pyrazin-2-yl)-3,3-dimethyl-6-(2-methylpyrimidin-5-yl)indolin-2-one], with 0.0887 µM; and `Cc1ncc(-c2ccc3c(c2)N(c2cncc(NC4COC4)n2)C(=O)C3(C)C)cn1` [Example 17, 3,3-Dimethyl-6-(2-methylpyrimidin-5-yl)-1-(6-(oxetan-3-ylamino)pyrazin-2-yl)indolin-2-one], with 0.244 µM.
Then `COCCNc1nc(N2C(=O)C(C)(C)c3ccc(-c4cnc(C)nc4)cc32)cnc1C` [Example 19, 1-(6-((2-Methoxyethyl)amino)-5-methylpyrazin-2-yl)-3,3-dimethyl-6-(2-methylpyrimidin-5-yl)indolin-2-one], with 0.11 µM; and `Cc1ncc(-c2ccc3c(c2)N(c2cncc(N4C(=O)OC[C@H]4C(C)C)n2)C(=O)C3(C)C)cn1` [Example 21, (R)-3-(6-(3,3-Dimethyl-6-(2-methylpyrimidin-5-yl)-2-oxoindolin-1-yl)pyrazin-2-yl)-4-isopropyloxazolidin-2-one], with 0.238 µM.
The result for `Cc1ncc(-c2ccc3c(c2)N(c2cncc(N4C(=O)OC[C@@H]4C(C)C)n2)C(=O)C3(C)C)cn1` [Example 22, (S)-3-(6-(3,3-Dimethyl-6-(2-methylpyrimidin-5-yl)-2-oxoindolin-1-yl)pyrazin-2-yl)-4-isopropyloxazolidin-2-one] reads 0.387 µM; that for `Cc1ncc(-c2ccc3c(c2)N(c2ccnc(N4CCOCC4)n2)C(=O)C3(C)C)cn1` [Example 23, 3,3-Dimethyl-6-(2-methylpyrimidin-5-yl)-1-(2-morpholinopyrimidin-4-yl)indolin-2-one], 0.0522 µM.
As to `Cc1ncc(-c2ccc3c(c2)N(c2nccc(N4CCOCC4)n2)C(=O)C3(C)C)cn1` [Example 24, 3,3-Dimethyl-6-(2-methylpyrimidin-5-yl)-1-(4-morpholinopyrimidin-2-yl)indolin-2-one], the 50% inhibitory concentration (IC50) was determined as 0.321 µM.
The result for `Cc1ncc(-c2ccc3c(c2)N(c2cncc(N)c2)C(=O)C3(C)C)cn1` [Example 25, 1-(5-Aminopyridin-3-yl)-3,3-dimethyl-6-(2-methylpyrimidin-5-yl)indolin-2-one] reads 0.466 µM.
The result for `Cc1ncc(-c2ccc3c(c2)N(c2cncc(N4CCOCC4)c2)C(=O)C3(C)C)cn1` [Example 26, 3,3-Dimethyl-6-(2-methylpyrimidin-5-yl)-1-(5-morpholinopyridin-3-yl)indolin-2-one] reads 0.0176 µM.
Then `Cc1ncc(-c2ccc3c(c2)N(c2cccc(N4CCOCC4)n2)C(=O)C3(C)C)cn1` [Example 27, 3,3-Dimethyl-6-(2-methylpyrimidin-5-yl)-1-(6-morpholinopyridin-2-yl)indolin-2-one], with 0.0575 µM; and `Cc1ncc(-c2ccc3c(c2)N(c2cccc(N4CCOC4=O)n2)C(=O)C3(C)C)cn1` [Example 28, 3-(6-(3,3-Dimethyl-6-(2-methylpyrimidin-5-yl)-2-oxoindolin-1-yl)pyridin-2-yl)oxazolidin-2-one], with 0.005 µM.
On to `Cc1ncc(-c2ccc3c(c2)N(c2ccc(C)c(N)n2)C(=O)C3(C)C)cn1` [Example 29, 1-(6-Amino-5-methylpyridin-2-yl)-3,3-dimethyl-6-(2-methylpyrimidin-5-yl)indolin-2-one], for which the IC50 was determined as 0.126 µM.
Then `CC(=O)Nc1nc(N2C(=O)C(C)(C)c3ccc(-c4cnc(C)nc4)cc32)ccc1C` [Example 30, N-(6-(3,3-Dimethyl-6-(2-methylpyrimidin-5-yl)-2-oxoindolin-1-yl)-3-methylpyridin-2-yl)acetamide], with 0.346 µM.
The result for `Cc1ncc(-c2ccc3c(c2)N(c2ccc(C)c(N4CCOCC4)n2)C(=O)C3(C)C)cn1` [Example 31, 3,3-Dimethyl-1-(5-methyl-6-morpholinopyridin-2-yl)-6-(2-methylpyrimidin-5-yl)indolin-2-one] reads 0.0401 µM; that for `Cc1ncc(-c2ccc3c(c2)N(c2ccc(C)c(N4CCOC4=O)n2)C(=O)C3(C)C)cn1` [Example 32, 3-(6-(3,3-Dimethyl-6-(2-methylpyrimidin-5-yl)-2-oxoindolin-1-yl)-3-methylpyridin-2-yl)oxazolidin-2-one], 0.0324 µM; that for `Cc1ncc(-c2ccc3c(c2)N(c2cccc4[nH]ccc24)C(=O)C3(C)C)cn1` [Example 33, 1-(1H-Indol-4-yl)-3,3-dimethyl-6-(2-methylpyrimidin-5-yl)indolin-2-one], 0.742 µM.
For `Cc1ncc(-c2ccc3c(c2)N(c2cncc4[nH]ccc24)C(=O)C3(C)C)cn1` [Example 34, 3,3-Dimethyl-6-(2-methylpyrimidin-5-yl)-1-(1H-pyrrolo[2,3-c]pyridin-4-yl)indolin-2-one], the IC50 turned out to be 0.838 µM.
